Laboratory results as given in patent publication US11505797B2, “Gene knockout of variant NRF2 for treatment of cancer” (Christiana Care Health Services, Inc., priority 2019, dated 2022).
“And” between values parts separate entries of the source, which are not always exact repeats. Equal values may be shown once. “Also recorded” adds a separate entry of the source.

Assays:
wildtype NRF2 sequence = assay: In vitro cleavage reaction, wildtype NRF2 amplicons; format: biochemical, human; details: A549 or H1703 parental amplicons, 0.5-5 pmol RNP, gel electrophoresis
Procedure: (§1) As proof of concept, an in vitro cleavage reaction was conducted to assess the level of discrimination using the R34G guide RNA in a ribonucleoprotein complex (RNP). The in vitro cleavage reaction encompasses complexing target specific-guide RNA with Cas9 protein to form a ribonucleoprotein (RNP). The RNP is incubated with DNA of interest (100 ng) and the reaction and cleavage products are visualized by gel electrophoresis. For this experiment, wildtype and R34G-mutated NRF2 PCR products (901 bp) from an NRF2 expression plasmid (FIG. 21) were incubated with R34G-targeting RNP complex (1 μM) and cleavage products were visualized by gel electrophoresis, shown in FIG. 22.
Once the sequences were verified, genomic DNA from each cell line was used to amplify exon 2 of NRF2. The PCR products (530 bp) from each cell line were then used in in vitro cleavage reactions under various parameters to test specificity and fidelity of the R34G-targeting RNP. For these cleavage reactions, expected cleavage products would appear at 385 and 145 bp as indicated by the red lines along the ladder, with uncut product appearing at 530 bp. FIG. 24 depicts the gel image from an in vitro cleavage reaction using wildtype NRF2 sequence from parental A549 cells and R34G-mutated NRF2 sequence from the A549 R34G-6 cells. […]

[1] = tested on: R34G-mutated NRF2 sequence; assay: In vitro cleavage reaction, R34G-mutated NRF2 amplicons; format: biochemical, human; details: gel electrophoresis; for cleavage specificity, NRF2 expression plasmid and 901 bp amplicons: wildtype versus R34G NRF2, RNP 1 μM, DNA 100 ng
Procedure: as §1
Once the sequences were verified, genomic DNA from each cell line was used to amplify exon 2 of NRF2. The PCR products (530 bp) from each cell line were then used in in vitro cleavage reactions under various parameters to test specificity and fidelity of the R34G-targeting RNP. For these cleavage reactions, expected cleavage products would appear at 385 and 145 bp as indicated by the red lines along the ladder, with uncut product appearing at 530 bp. FIG. 24 depicts the gel image from an in vitro cleavage reaction using wildtype NRF2 sequence from parental A549 cells and R34G-mutated NRF2 sequence from the A549 R34G-6 cells. An increasing concentration (0.5-5 pmol) of R34G-targeting RNP was used to determine the threshold and fidelity of the sequence. […] Uncut product (top band, 530 bp) can still be seen in lanes 7-10, which corresponds to the heterozygosity of the R34G mutation in the A549 R34G-6 cell line. Therefore, the wildtype NRF2 allele in the A549 R34G-6 cell line acts as an internal negative control.
Another in vitro cleavage reaction was conducted to assess the cleavage efficiency of the wildtype NRF2 sequence to ensure the R34G-targeting RNP was, in fact, not cleaving the wildtype NRF2 sequence because of the lack of the R34G mutation. A guide RNA with a cut site 29 bp upstream (labeled Neh2 RNP) from the R34G RNP cut site was selected and used as a positive cleavage control. […] Lanes 1-8 were reactions using wildtype NRF2 sequence while lanes 9-16 were reactions using R34G-mutated NRF2 sequence. In lanes 2-4 and 10-12, PCR products were incubated with increasing concentrations (1, 3 & 5 pmol) of RNP targeting the beginning of exon 2 (Neh2 RNP). The Neh2 guide RNA sequence is: 5′ […] 3′ (SEQ ID NO:13) which is a native CRISPR site and used as the positive control for cleavage for these reactions. […] In lanes 6-8 and 14-16, PCR products were incubated with increasing concentrations (1, 3 & 5 pmol) of R34G-targeting RNP. […] This further reinforces the specificity of the R34G-targeting RNP only recognizing the target DNA in the presence of the R34G mutation in exon 2 of NRF2. […]

[2] = tested on: wildtype NRF2 gene in A549 parental cells; assay: TIDE analysis after transfection of R34G-targeting RNP, A549 parental cells; format: cell-based, human
Procedure: (§2) The in vitro cleavage reactions were further assessed through cell based-experiments using the same cell lines: A549 and H1703 parental cell lines and the A549 R34G-6 cell line. The cell lines were cultured under the standard conditions and transfected by electroporation (Lonza, Nucleofection) using previously established parameters. FIGS. 27-29 depict the genetic analysis of eight separate experiments using all three cell lines after transfection of the R34G-targeting RNP. This experiment was conducted under three different conditions. The first condition was using an equimolar concentration of duplexed guide RNA to Cas9. The second condition was using five times the amount of duplexed guide RNA to Cas9, along with using a GFP (Green Fluorescent Protein) expression vector to measure transfection efficiency and to sort the GFP-positive population for further analysis. The third condition was using five times the amount of single guide RNA to Cas9, along with the GFP expression vector and sorting of the GFP-positive population for further analysis.
FIG. 27 depicts the genetic analysis after transfection of the R34G-targeting RNP in the A549 parental cells. The A549 parental cells contain a wildtype NRF2 gene therefore there is no native CRISPR/Cas9 recognition site for the R34G-targeting RNP. […]

[3] = tested on: R34G-mutated NRF2 gene in A549 R34G-6 cells; assay: TIDE analysis after transfection of R34G-targeting RNP, A549 R34G-6 cells; format: cell-based, human; details: GFP-positive sorted population
Procedure: as §2
FIG. 28 depicts the genetic analysis after transfection of the R34G-targeting RNP in the A549 R34G-mutated clonal cell line (A549 R34G-6). The A549 R34G-6 cells contain a heterozygous R34G mutation in exon 2 of the NRF2 gene, creating a new CRISPR recognition site for the R34G-targeting RNP. […] The significant total indel efficiency indicates the R34G-targeting RNP is very active. […] The lower R2 value indicates some of the sequence analysis is unaccounted for likely because of sequence quality. […] Although only a speculation, the R34G-targeting RNP does differentiate between the wildtype and R34G-mutated alleles within the clonal cell line.

[4] = tested on: wildtype NRF2 gene in NCI-H1703 cell line; assay: TIDE analysis after transfection of R34G-targeting RNP, H1703 parental cells; format: cell-based, human
Procedure: as §2
FIG. 29 depicts the genetic analysis after transfection of the R34G-targeting RNP in the NCI-H1703 cell line, which contains a wildtype NRF2 gene and no native CRISPR recognition site.

[5] = top panel, bulk unsorted population

5′ GATATAGATCTTGGAGTAAGTGG 3′ [R34G-targeting RNP]
cleavage of wildtype NRF2 amplicon (530 bp) (wildtype NRF2 sequence): does not result in cleavage of wildtype NRF2 sequence; also recorded: minimal cleavage seen in lanes 6-8 | cleavage of R34G-mutated NRF2 amplicon (530 bp) ([1]; A549 R34G-6 amplicon, 0.5-5 pmol RNP): cleavage products can be seen even with half of the standard concentration; also recorded: clearly seen | cleavage specificity, NRF2 expression plasmid and 901 bp amplicons [1]: only recognizes and cleaves the mutated DNA sequence | cleavage specificity, NRF2 expression plasmid and 901 bp amplicons ([1]; listed as R34G RNP): only recognizes and cleaves with the mutation present | total indel efficiency ([2]; bottom panel, GFP-positive sorted population): 11.4% and 11.3% | total indel efficiency [2, 5]: 11.8% and 11.4% | total indel efficiency ([3]; bottom panel): 32.7% | sequence analyzed that is wildtype ([3]; middle panel): 32.0% | total indel efficiency ([3]; middle panel): 55.7% | total indel efficiency ([4]; bottom panel, GFP-sorted population): 4.6% | total indel efficiency [4, 5]: 0.0%
